From US20260200926A1, “TREM2 MODULATORS” (Muna Therapeutics ApS, priority 2022, published 2026)
Where a name gives a salt, the structure may show the parent alone. Read-outs that look alike come from different tables or passages of the source.

Biological target: T1, Human TREM2 (Homo sapiens, UniProt Q9NZC2)
T1 construct: expressed in transfected cells
Assay: Human TREM2 activity: cellular phosphorylation of Syk (AlphaLISA SureFire Ultra p-SYK) in HEK293/DAP12+TREM2 stable cell line
Format: cell-based
Settings: for Emax: maximal response relative to reference agonist example 1B (remaining examples)
Method in brief: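 HEK293 cells stably co-expressing human TREM2 and DAP12 were seeded at 10,000 cells/well and used 20–24 h later. Compounds were tested at 8 concentrations (top 100 μM, 1:6 steps, 0.5% DMSO) for 30 min at 37 °C. Syk phosphorylation at Tyr525/526 was read in lysates by AlphaLISA SureFire Ultra.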

[1] = phospho-Syk AlphaLISA signal, HEK293/DAP12+TREM2 cells, concentration giving 50% of maximal response, read-out: EC50

T1 sequence (Q9NZC2 19-230): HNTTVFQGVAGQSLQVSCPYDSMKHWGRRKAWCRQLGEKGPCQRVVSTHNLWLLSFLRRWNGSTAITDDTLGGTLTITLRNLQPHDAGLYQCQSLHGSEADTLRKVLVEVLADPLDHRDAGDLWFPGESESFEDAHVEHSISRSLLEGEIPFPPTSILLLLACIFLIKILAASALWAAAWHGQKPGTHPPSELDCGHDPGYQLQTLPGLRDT
T1 sequence (O43914 22-113 partner): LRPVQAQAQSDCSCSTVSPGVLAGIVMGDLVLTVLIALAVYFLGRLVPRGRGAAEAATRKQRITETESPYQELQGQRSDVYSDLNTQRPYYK

Structure (SMILES)	Emax (HEK293, read-out: Emax) [%]	EC50 [1] [nM]	Emax	EC50 [nM]
Cc1nc2c(-c3ccc(F)c(F)c3)nc(N3CCOC(c4cnn(C)c4)C3)nc2c(=O)n1C (stereo not drawn) [Example 9, 8-(3,4-difluorophenyl)-2,3-dimethyl-6-(2-(1-methyl-1H-pyrazol-4-yl)morpholino)pyrimido[5,4-d]pyrimidin-4(3H)-one]	< 75	100 to 1000	–	–
Cc1nc2c(-c3ccc(C(F)(F)F)cc3F)nc(N3CCOC(c4cnn(C)c4)C3)nc2c(=O)n1C (stereo not drawn) [Example 10, 8-(2-fluoro-4-(trifluoromethyl)phenyl)-2,3-dimethyl-6-(2-(1-methyl-1H-pyrazol-4-yl)morpholino)pyrimido[5,4-d]pyrimidin-4(3H)-one]	75 to 110	100 to 1000	–	–
Cc1nc2c(C3CCC(F)(F)CC3)nc(N3CCOC(c4cnn(C)c4)C3)nc2c(=O)n1C (stereo not drawn) [Example 11, 8-(4,4-difluorocyclohexyl)-2,3-dimethyl-6-(2-(1-methyl-1H-pyrazol-4-yl)morpholino)pyrimido[5,4-d]pyrimidin-4 (3H)-one]	75 to 110	100 to 1000	–	–
Cc1nc2c(nc(N3CCOC(c4cnn(C)c4)C3)nc2[C@H]2CC[C@@H](C)CC2)c(=O)n1C (stereo partly drawn) [Example 12a, 2,3-dimethyl-6-(2-(1-methyl-1H-pyrazol-4-yl)morpholino)-8-((1s,4s)-4-methylcyclohexyl)pyrimido[5,4-d]pyrimidin-4 (3H)-one]	75 to 110	> 1000	–	–
Cc1nc2c(C3CCC(C)CC3)nc(N3CCOC(c4cnn(C)c4)C3)nc2c(=O)n1C (stereo not drawn) [Example 12b, 2,3-dimethyl-6-(2-(1-methyl-1H-pyrazol-4-yl)morpholino)-8-((1r,4r)-4-methylcyclohexyl)pyrimido[5,4-d]pyrimidin-4 (3H)-one]	–	100 to 1000	++ (75-110%)	–
Cc1nc2c(-c3ccc(Cl)cc3F)nc(N3CCC(F)(F)C(c4cnn(C)c4)C3)nc2c(=O)n1C (stereo not drawn) [Example 13, 8-(4-chloro-2-fluorophenyl)-6-(4,4-difluoro-3-(1-methyl-1H-pyrazol-4-yl)piperidin-1-yl)-2,3-dimethylpyrimido[5,4-d]pyrimidin-4 (3H)-one]	75 to 110	1 to 10	–	–
Cc1nc2c(-c3ccc(Cl)cc3F)nc(N3CC(COc4cnn(C)c4)C3)nc2c(=O)n1C [Example 15, 8-(4-chloro-2-fluorophenyl)-2,3-dimethyl-6-(3-(((1-methyl-1H-pyrazol-4-yl)oxy)methyl)azetidin-1-yl)pyrimido[5,4-d]pyrimidin-4 (3H)-one]	< 75	> 1000	–	–
Cc1nc2c(-c3ccc(Cl)cc3F)nc(N3CC(Oc4cnn(C)c4)C3)nc2c(=O)n1C [Example 16, 8-(4-chloro-2-fluorophenyl)-2,3-dimethyl-6-(3-((1-methyl-1H-pyrazol-4-yl)oxy)azetidin-1-yl)pyrimido[5,4-d]pyrimidin-4 (3H)-one]	75 to 110	100 to 1000	–	–
Cc1nc2c(-c3ccc(Cl)cc3F)nc(C3CCOC(c4cnn(C)c4)C3)nc2c(=O)n1C (stereo not drawn) [Example 17, 8-(4-chloro-2-fluorophenyl)-2,3-dimethyl-6-(2-(1-methyl-1H-pyrazol-4-yl)tetrahydro-2H-pyran-4-yl)pyrimido[5,4-d]pyrimidin-4 (3H)-one]	75 to 110	100 to 1000	–	–
Cc1nc2c(-c3ccc(Cl)cc3F)nc(N3CC(OCc4cnn(C)c4)C3)nc2c(=O)n1C [Example 18, 8-(4-chloro-2-fluorophenyl)-2,3-dimethyl-6-(3-((1-methyl-1H-pyrazol-4-yl)methoxy)azetidin-1-yl)pyrimido[5,4-d]pyrimidin-4 (3H)-one]	< 75	> 1000	–	–
Cc1nc2c(-c3ccc(Cl)cc3F)nc(N3CCN(C)C(c4cnn(C)c4)C3)nc2c(=O)n1C (stereo not drawn) [Example 29, 8-(4-chloro-2-fluorophenyl)-2,3-dimethyl-6-(4-methyl-3-(1-methyl-1H-pyrazol-4-yl)piperazin-1-yl)pyrimido[5,4-d]pyrimidin-4(3H)-one]	< 75	100 to 1000	–	–
CCN1CCN(c2nc(-c3ccc(Cl)cc3F)c3nc(C)n(C)c(=O)c3n2)CC1c1cnn(C)c1 (stereo not drawn) [Example 30, 8-(4-chloro-2-fluorophenyl)-6-(4-ethyl-3-(1-methyl-1H-pyrazol-4-yl)piperazin-1-yl)-2,3-dimethylpyrimido[5,4-d]pyrimidin-4(3H)-one]	75 to 110	100 to 1000	–	–
Cc1nc2c(-c3ccc(Cl)cc3F)nc(N3CCN(CCF)C(c4cnn(C)c4)C3)nc2c(=O)n1C (stereo not drawn) [Example 31, 8-(4-chloro-2-fluorophenyl)-6-(4-(2-fluoroethyl)-3-(1-methyl-1H-pyrazol-4-yl)piperazin-1-yl)-2,3-dimethylpyrimido[5,4-d]pyrimidin-4(3H)-one]	75 to 110	10 to 100	–	–
Cc1nc2c(-c3ccc(Cl)cc3F)nc(N3CCN(CC(F)F)C(c4cnn(C)c4)C3)nc2c(=O)n1C (stereo not drawn) [Example 32, 8-(4-chloro-2-fluorophenyl)-6-(4-(2,2-difluoroethyl)-3-(1-methyl-1H-pyrazol-4-yl)piperazin-1-yl)-2,3-dimethylpyrimido[5,4-d]pyrimidin-4(3H)-one]	< 75	10 to 100	–	–
Cc1nc2c(-c3ccc(Cl)cc3F)nc(N3CCN(CC(F)(F)F)C(c4cnn(C)c4)C3)nc2c(=O)n1C (stereo not drawn) [Example 33, 8-(4-chloro-2-fluorophenyl)-2,3-dimethyl-6-(3-(1-methyl-1H-pyrazol-4-yl)-4-(2,2,2-trifluoroethyl)piperazin-1-yl)pyrimido[5,4-d]pyrimidin-4(3H)-one]	< 75	10 to 100	–	–
COCCN1CCN(c2nc(-c3ccc(Cl)cc3F)c3nc(C)n(C)c(=O)c3n2)CC1c1cnn(C)c1 (stereo not drawn) [Example 34, 8-(4-chloro-2-fluorophenyl)-6-(4-(2-methoxyethyl)-3-(1-methyl-1H-pyrazol-4-yl)piperazin-1-yl)-2,3-dimethylpyrimido[5,4-d]pyrimidin-4(3H)-one]	< 75	100 to 1000	–	–
Cc1ncc(C2CN(c3nc(-c4ccc(Cl)cc4F)c4nc(C)n(C)c(=O)c4n3)CCO2)cn1 (stereo not drawn) [Example 35, 8-(4-chloro-2-fluorophenyl)-2,3-dimethyl-6-(2-(2-methylpyrimidin-5-yl)morpholino)pyrimido[5,4-d]pyrimidin-4 (3H)-one]	–	–	+ (<75%)	10 to 100
Cc1nc2c(-c3ccc(Cl)cc3F)nc(N3CCOC(c4ccn(C)n4)C3)nc2c(=O)n1C (stereo not drawn) [Example 36, 8-(4-chloro-2-fluorophenyl)-2,3-dimethyl-6-(2-(1-methyl-1H-pyrazol-3-yl)morpholino)pyrimido[5,4-d]pyrimidin-4 (3H)-one]	–	–	++ (75-110%)	100 to 1000
Cc1nc2c(-c3ccc(Cl)cc3F)nc(N3CCOC(c4cn[nH]c4)C3)nc2c(=O)n1C (stereo not drawn) [Example 39, 6-(2-(1H-pyrazol-4-yl)morpholino)-8-(4-chloro-2-fluorophenyl)-2,3-dimethylpyrimido[5,4-d]pyrimidin-4 (3H)-one]	< 75	10 to 100	–	–
Cc1nc2c(-c3ccc(Cl)cc3F)nc(N3CCOC(c4cnn(C5COC5)c4)C3)nc2c(=O)n1C (stereo not drawn) [Example 40, 8-(4-chloro-2-fluorophenyl)-2,3-dimethyl-6-(2-(1-(oxetan-3-yl)-1H-pyrazol-4-yl)morpholino)pyrimido[5,4-d]pyrimidin-4 (3H)-one]	75 to 110	10 to 100	–	–
Cc1nc2c(-c3ccc(Cl)cc3F)nc(N3CCOC(c4cnn(C5CNC5)c4)C3)nc2c(=O)n1C (stereo not drawn) [Example 41, 6-(2-(1-(azetidin-3-yl)-1H-pyrazol-4-yl)morpholino)-8-(4-chloro-2-fluorophenyl)-2,3-dimethylpyrimido[5,4-d]pyrimidin-4 (3H)-one hydrochloride salt]	75 to 110	100 to 1000	–	–
Cc1nc2c(-c3ccc(Cl)cc3F)nc(N3CCOC(c4cnn(C5CN(C)C5)c4)C3)nc2c(=O)n1C (stereo not drawn) [Example 42, 8-(4-chloro-2-fluorophenyl)-2,3-dimethyl-6-(2-(1-(1-methylazetidin-3-yl)-1H-pyrazol-4-yl)morpholino)pyrimido[5,4-d]pyrimidin-4 (3H)-one]	< 75	10 to 100	–	–
Cc1nnc(C2CN(c3nc(-c4ccc(Cl)cc4F)c4nc(C)n(C)c(=O)c4n3)CCO2)o1 (stereo not drawn) [Example 43, 8-(4-chloro-2-fluorophenyl)-2,3-dimethyl-6-(2-(5-methyl-1,3,4-oxadiazol-2-yl)morpholino)pyrimido[5,4-d]pyrimidin-4(3H)-one]	< 75	10 to 100	–	–
Cc1nc2c(-c3ccc(Cl)cc3F)nc(N3CCOC(c4ccnn4C)C3)nc2c(=O)n1C (stereo not drawn) [Example 44, 8-(4-chloro-2-fluorophenyl)-2,3-dimethyl-6-(2-(1-methyl-1H-pyrazol-5-yl)morpholino)pyrimido[5,4-d]pyrimidin-4(3H)-one]	75 to 110	100 to 1000	–	–
Cc1csc(C2CN(c3nc(-c4ccc(Cl)cc4F)c4nc(C)n(C)c(=O)c4n3)CCO2)n1 (stereo not drawn) [Example 45, 8-(4-chloro-2-fluorophenyl)-2,3-dimethyl-6-(2-(4-methylthiazol-2-yl)morpholino)pyrimido[5,4-d]pyrimidin-4(3H)-one]	< 75	10 to 100	–	–
Cc1n[nH]c(C2CN(c3nc(-c4ccc(Cl)cc4F)c4nc(C)n(C)c(=O)c4n3)CCO2)n1 (stereo not drawn) [Example 46, 8-(4-chloro-2-fluorophenyl)-2,3-dimethyl-6-(2-(3-methyl-1H-1,2,4-triazol-5-yl)morpholino)pyrimido[5,4-d]pyrimidin-4(3H)-one]	< 75	100 to 1000	–	–
Cc1nc2c(-c3ccc(Cl)cc3F)nc(N3CCOC(c4cc[nH]n4)C3)nc2c(=O)n1C (stereo not drawn) [Example 47, 6-(2-(1H-pyrazol-3-yl)morpholino)-8-(4-chloro-2-fluorophenyl)-2,3-dimethylpyrimido[5,4-d]pyrimidin-4(3H)-one]	< 75	100 to 1000	–	–
